According to PubChem BioAssay AID1918938 (Molecular Pharmacology Branch, DTP, NCI, 2023):

Test system: 556581-035-R-J1-PDC complex spheroid viability
Assay: Anticancer human tumor 556581-035-R-J1-PDC patient-derived ovarian carcinoma cell line growth inhibition
Settings: for IC50: curve of first compound; for viability, T/C: stronger effect = lower value
Excerpt: Multicellular complex tumor spheroid response to LSD1 Inhibitor Iadademstat in combination with a variety of drugs and investigational agents in selected tumor cell lines
The current study was undertaken to assess response to LSD1 inhibitors in combination with standard-of-care drugs and investigational agents in solid tumor complex spheroid models as well as in the K-562 leukemia. Complex spheroids include a stromal component modeled by human endothelial cells (HUVEC) and fibroblasts modeled by human mesenchymal stem cells (MSCs). The concentration ranges selected for each drug and investigational agent were based upon clinically achievable concentrations if the clinical Cmax of the agent was known.
Compounds. The drugs and investigational agents used in this study are listed on Table 1. All of the agents used, including staurosporine (NSC755774) and gemcitabine (NSC613327), were obtained from the Developmental Therapeutics Program, NCI. FDA-approved anticancer drugs are available from the NCI at http://dtp.nci.nih.gov/branches/dscb/oncology_drugset_explanation.html. Drugs and investigational agents were >95% pure by proton nuclear magnetic resonance (NMR) and liquid chromatography/mass spectrometry (LC/MS). Stock solutions were prepared at 400x in DMSO, stored at -70 degrees C, and diluted in fresh medium prior to their use. The final concentration of DMSO in cell culture wells never exceeded 0.25% (v/v). The FDA-approved anticancer drug set is available from the Developmental Therapeutics Program at https://dtp.cancer.gov/organization/dscb/obtaining/available_plates.htm. All drugs and investigational agents were tested over a range starting from a high concentration at or near the clinical Cmax and decreasing in half-log increments. If the clinical Cmax for an agent had not been determined, the highest concentration tested was 10 microM.
Cell Lines. The patient-derived cancer cell (PDC) lines: 292921-168-R-J2-PDC, K24384-001-R-PDC, and 521955-158-R2-J5-PDC pancreatic carcinomas, 556581-035-R-J1 ovarian carcinoma, 324938-238-R-J1-PDC, 855422-203-R-J1-PDC and 883617-216-R-J1-PDC urothelial bladder carcinomas, 743489-274-T-PDC renal cell carcinoma, 138582-R-J1 Merkel cell tumor, K60290-347-R-J1 and K57222-313-R-J1-PDC glioblastomas, 653999-131-R-J2-PDC, LG0703-F948-PDC, and 349418-098-R-PDC non-small cell lung carcinomas, 885512-296-R-J2-PDC, 171881-019-R-J1-PDC breast carcinomas and 186277-243-T-J2-PDC and 233499-124-R-J2-PDC colon carcinomas were obtained from the NCI Patient-Derived Models Repository (PDMR, https://pdmr.cancer.gov). The established cell lines NCI/ADR-RES (RRID:CVCL_14520 and OVCAR-5 (RRID:CVCL_1628) ovarian carcinomas, 786-O (RRID:CVCL_1051) and A498 (RRID:CVCL_A498) renal cell carcinoma, NCI-H211 (ATCC, cat. CRL-5824; RRID:CVCL_1529), NCI-H196 (ATCC, cat. CRL-5823, RRID:CVCL_1509), SW 1271 (ATCC, cat. CRL-2177, RRID:CVCL_1716) and NCI-H1876 (ATCC, cat. CRL-5902, RRID:CVCL_1503) small cell lung carcinomas, MDA-MB-231 (RRID:CVCL_0062) and MDA-MB-468 (RRID:CVCL_0419)breast carcinomas (10-12). Pooled donor human umbilical vein endothelial cells (HUVEC, Lonza, cat. CC-2519) and human mesenchymal stem cells (hMSC, Lonza, cat. PT-2501) were purchased from Lonza (Walkersville, MD).
Cell Culture. All cells were maintained in an incubator at 37 degrees C and 5% CO2 with 95% humidity. The PDC lines were cultured according to standard operating procedures established by the NCI PDMR (https://pdmr.cancer.gov). Briefly all PDCs were thawed and cultured in Matrigel-coated flasks prepared with a working solution of 1X Ham's F-12 nutrient mix, without supplementation (Invitrogen, Waltham, MA, cat. 11765054), 100 U/mL penicillin-streptomycin (Invitrogen, cat. 15140122), and 2.5% Matrigel (Corning Inc., Corning, NY, cat. 354248) for the first three passages. […]

[1] = second compound 0.1 µM, first compound 0.000949 µM
[2] = second compound 0.1 µM, first compound 0.003 µM
[3] = second compound 0.1 µM, first compound 0.00949 µM
[4] = second compound 0.1 µM, first compound 0.03 µM
[5] = second compound 0.1 µM, first compound 0.0949 µM
[6] = second compound 0.1 µM, first compound 0.3 µM
[7] = second compound 0.316 µM, first compound 0.000949 µM
[8] = second compound 0.316 µM, first compound 0.003 µM
[9] = second compound 0.316 µM, first compound 0.00949 µM
[10] = second compound 0.316 µM, first compound 0.03 µM
[11] = second compound 0.316 µM, first compound 0.0949 µM
[12] = second compound 0.316 µM, first compound 0.3 µM
[13] = second compound 1 µM, first compound 0.000949 µM
[14] = second compound 1 µM, first compound 0.003 µM
[15] = second compound 1 µM, first compound 0.00949 µM
[16] = second compound 1 µM, first compound 0.03 µM
[17] = second compound 1 µM, first compound 0.0949 µM
[18] = second compound 1 µM, first compound 0.3 µM
[19] = second compound 3.16 µM, first compound 0.000949 µM
[20] = second compound 3.16 µM, first compound 0.003 µM
[21] = second compound 3.16 µM, first compound 0.00949 µM
[22] = second compound 3.16 µM, first compound 0.03 µM
[23] = second compound 3.16 µM, first compound 0.0949 µM
[24] = second compound 3.16 µM, first compound 0.3 µM
[25] = second compound 10 µM, first compound 0.000949 µM
[26] = second compound 10 µM, first compound 0.003 µM
[27] = second compound 10 µM, first compound 0.00949 µM
[28] = second compound 10 µM, first compound 0.03 µM
[29] = second compound 10 µM, first compound 0.0949 µM
[30] = second compound 10 µM, first compound 0.3 µM
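Also: spheroids exposed to agents for seven days.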
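For viability, T/C in this document: 100% = DMSO vehicle control wells.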

SMILES: CCc1c2c(nc3ccc(O)cc13)-c1cc3c(c(=O)n1C2)COC(=O)[C@]3(O)CC + NC1CC1c1ccc(-c2cccc(O)c2)cc1
- IC50 (second compound 0.1 µM): < 0.949 nM
- IC50 (second compound 0.316 µM): < 0.949 nM
- IC50 (second compound 1 µM): < 0.949 nM
- IC50 (second compound 3.16 µM): < 0.949 nM
- IC50 (second compound 10 µM): < 0.949 nM
- viability, T/C [1]: 14.6%
- viability, T/C [2]: 11%
- viability, T/C [3]: 0.89%
- viability, T/C [4]: 0.24%
- viability, T/C [5]: 0.2%
- viability, T/C [6]: 0.32%
- viability, T/C [7]: 15.4%
- viability, T/C [8]: 11.4%
- viability, T/C [9]: 0.92%
- viability, T/C [10]: 0.23%
- viability, T/C [11]: 0.17%
- viability, T/C [12]: 0.28%
- viability, T/C [13]: 15.4%
- viability, T/C [14]: 12.1%
- viability, T/C [15]: 1.74%
- viability, T/C [16]: 0.23%
- viability, T/C [17]: 0.19%
- viability, T/C [18]: 0.27%
- viability, T/C [19]: 13.8%
- viability, T/C [20]: 11.7%
- viability, T/C [21]: 1.62%
- viability, T/C [22]: 0.26%
- viability, T/C [23]: 0.27%
- viability, T/C [24]: 0.73%
- viability, T/C [25]: 14.4%
- viability, T/C [26]: 10.7%
- viability, T/C [27]: 1.64%
- viability, T/C [28]: 0.89%
- viability, T/C [29]: 0.3%
- viability, T/C [30]: 0.37%

SMILES: Nc1ccn(C2OC(CO)C(O)C2(F)F)c(=O)n1 (stereo not given) + NC1CC1c1ccc(-c2cccc(O)c2)cc1
- IC50 (second compound 0.1 µM): 1.32 nM
- IC50 (second compound 0.316 µM): 1.4 nM
- IC50 (second compound 1 µM): 1.94 nM
- IC50 (second compound 3.16 µM): 1.75 nM
- IC50 (second compound 10 µM): 1.83 nM
- viability, T/C [1]: 58.8%
- viability, T/C [2]: 28.2%
- viability, T/C [3]: 22.4%
- viability, T/C [4]: 26.8%
- viability, T/C [5]: 29.3%
- viability, T/C [6]: 27%
- viability, T/C [7]: 60.1%
- viability, T/C [8]: 30.7%
- viability, T/C [9]: 24.3%
- viability, T/C [10]: 25%
- viability, T/C [11]: 29.3%
- viability, T/C [12]: 27.1%
- viability, T/C [13]: 74%
- viability, T/C [14]: 36.5%
- viability, T/C [15]: 24.2%
- viability, T/C [16]: 25.4%
- viability, T/C [17]: 29.9%
- viability, T/C [18]: 22.9%
- viability, T/C [19]: 71%
- viability, T/C [20]: 31.3%
- viability, T/C [21]: 28.9%
- viability, T/C [22]: 26.5%
- viability, T/C [23]: 28.5%
- viability, T/C [24]: 29%
- viability, T/C [25]: 67.2%
- viability, T/C [26]: 37.3%
- viability, T/C [27]: 34.1%
- viability, T/C [28]: 29.8%
- viability, T/C [29]: 37.1%
- viability, T/C [30]: 34.1%

SMILES: O=C(c1cc(Cc2n[nH]c(=O)c3ccccc23)ccc1F)N1CCN(C(=O)C2CC2)CC1 + NC1CC1c1ccc(-c2cccc(O)c2)cc1
- IC50 (second compound 0.1 µM): > 10000 nM
- IC50 (second compound 0.316 µM): > 10000 nM
- IC50 (second compound 1 µM): > 10000 nM
- IC50 (second compound 3.16 µM): > 10000 nM
- IC50 (second compound 10 µM): 9280 nM
- viability, T/C (second compound 0.1 µM, first compound 0.0316 µM): 86.1%
- viability, T/C (second compound 0.1 µM, first compound 0.1 µM): 86.2%
- viability, T/C (second compound 0.1 µM, first compound 0.316 µM): 93.4%
- viability, T/C (second compound 0.1 µM, first compound 1 µM): 76.6%
- viability, T/C (second compound 0.1 µM, first compound 3.16 µM): 77.2%
- viability, T/C (second compound 0.1 µM, first compound 10 µM): 63.4%
- viability, T/C (second compound 0.316 µM, first compound 0.0316 µM): 92.3%
- viability, T/C (second compound 0.316 µM, first compound 0.1 µM): 83.2%
- viability, T/C (second compound 0.316 µM, first compound 0.316 µM): 74.8%
- viability, T/C (second compound 0.316 µM, first compound 1 µM): 90.7%
- viability, T/C (second compound 0.316 µM, first compound 3.16 µM): 72.2%
- viability, T/C (second compound 0.316 µM, first compound 10 µM): 67.5%
- viability, T/C (second compound 1 µM, first compound 0.0316 µM): 86.8%
- viability, T/C (second compound 1 µM, first compound 0.1 µM): 83.5%
- viability, T/C (second compound 1 µM, first compound 0.316 µM): 79.3%
- viability, T/C (second compound 1 µM, first compound 1 µM): 69.9%
- viability, T/C (second compound 1 µM, first compound 3.16 µM): 61.5%
- viability, T/C (second compound 1 µM, first compound 10 µM): 58.8%
- viability, T/C (second compound 3.16 µM, first compound 0.0316 µM): 84.4%
- viability, T/C (second compound 3.16 µM, first compound 0.1 µM): 80.2%
- viability, T/C (second compound 3.16 µM, first compound 0.316 µM): 84.9%
- viability, T/C (second compound 3.16 µM, first compound 1 µM): 79.5%
- viability, T/C (second compound 3.16 µM, first compound 3.16 µM): 61%
- viability, T/C (second compound 3.16 µM, first compound 10 µM): 57.4%
- viability, T/C (second compound 10 µM, first compound 0.0316 µM): 79.1%
- viability, T/C (second compound 10 µM, first compound 0.1 µM): 76%
- viability, T/C (second compound 10 µM, first compound 0.316 µM): 79.2%
- viability, T/C (second compound 10 µM, first compound 1 µM): 70.6%
- viability, T/C (second compound 10 µM, first compound 3.16 µM): 61.6%
- viability, T/C (second compound 10 µM, first compound 10 µM): 49.4%
